Assay results from US20220324865A1 (Bayer Aktiengesellschaft, priority 2018, published 2022).

Target: T1, human EP3 receptor (Homo sapiens, UniProt P43115)
T1 construct: expressed in transfected cells; host or cells: CHO K1 (Chinese Hamster Ovary), stably co-transfected with Galpha16 and mitochondrial clytin
T1 sequence (P43115 1-390): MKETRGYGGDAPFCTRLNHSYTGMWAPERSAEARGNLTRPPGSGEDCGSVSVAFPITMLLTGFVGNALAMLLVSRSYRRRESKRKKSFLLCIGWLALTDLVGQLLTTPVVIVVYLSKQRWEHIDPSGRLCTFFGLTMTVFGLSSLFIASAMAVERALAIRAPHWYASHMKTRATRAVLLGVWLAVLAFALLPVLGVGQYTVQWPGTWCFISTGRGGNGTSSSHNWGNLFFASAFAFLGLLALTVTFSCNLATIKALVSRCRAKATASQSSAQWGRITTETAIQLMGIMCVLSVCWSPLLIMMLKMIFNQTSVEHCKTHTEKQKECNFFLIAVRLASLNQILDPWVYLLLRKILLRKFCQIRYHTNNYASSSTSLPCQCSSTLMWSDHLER
Assay: Cellular in vitro assay for determining EP3 receptor activity (human EP3 cell line, sulprostone-stimulated calcium luminescence)
Format: cell-based
Conditions: CHO cells expressing human EP3 and mitochondrial Clytin; antagonist mode, sulprostone at EC50; read-out: EP3 CHO mtCLY ANTAG IC50
Outline: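 CHO K1 cells stably expressing human EP3 with Gα16 and mitochondrial Clytin, loaded overnight with coelenterazine. Compounds added 10 min before sulprostone at its EC50; antagonism read immediately as reduced calcium-driven luminescence, quadruplicate points.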

Compound | IC50 [nM]
Cc1cccc2ncc(-c3cn4nc(C(=O)NC5Cc6ccccc6C5)c(C(C)C)c4c(=O)[nH]3)cc12 [Example 4-38, N-(2,3-Dihydro-1H-inden-2-yl)-6-(5-methylquinolin-3-yl)-4-oxo-3-(propan-2-yl)-4,5-dihydropyrazolo[1,5-a]pyrazine-2-carboxamide] | 1.3
Cc1ccc(-c2cn3nc(C(=O)NCC(O)C(F)(F)F)c(C4CC4)c3c(=O)[nH]2)cc1C(F)(F)F (single isomer, unassigned) [6-244] | 5.55
Cc1ccc(-c2cn3nc(C(=O)NC(C)C4CC4)c(C(F)(F)F)c3c(=O)[nH]2)cc1F (racemic) [6-147] | 5.6
Cc1cc(-c2cn3nc(C(=O)N[C@@H](C)C(C)C)c(C4CC4)c3c(=O)[nH]2)ccc1Cl [6-302] | 2.95
Cc1ccc(-c2cn3nc(C(=O)N[C@@H](c4ccc(F)cc4)C(F)(F)CO)c(C4CC4)c3c(=O)[nH]2)cc1F [6-375] | 1.07
O=C(N[C@H]1c2ccccc2C[C@@H]1O)c1cc2c(=O)[nH]c(-c3ccc4ccccc4c3)cn2n1 [6-73] | 8.3
Cc1cccc2ncc(-c3cn4nc(C(=O)NC(CN5CCCC5)c5ccccc5)c(C(C)C)c4c(=O)[nH]3)cc12 (stereo not drawn) [Example 4-63, 3-Isopropyl-6-(5-methylquinolin-3-yl)-4-oxo-N-[1-phenyl-2-(pyrrolidin-1-yl)ethyl]-4,5-dihydropyrazolo[1,5-a]pyrazine-2-carboxamide] | 9.45
COC(=O)N1CC(NC(=O)c2cc3c(=O)[nH]c(-c4ccc5ccccc5c4)cn3n2)(c2ccc(F)cc2)C1 [Example 1-50, Methyl 3-(4-fluorophenyl)-3-({[6-(naphthalen-2-yl)-4-oxo-4,5-dihydropyrazolo[1,5-a]pyrazin-2-yl]-carbonyl}amino)azetidine-1-carboxylate] | 3.53
CCn1cnnc1CNC(=O)c1nn2cc(-c3cnc4cccc(C)c4c3)[nH]c(=O)c2c1C(C)C [Example 4-20, N-[(4-Ethyl-4H-1,2,4-triazol-3-yl)methyl]-6-(5-methylquinolin-3-yl)-4-oxo-3-(propan-2-yl)-4,5-dihydropyrazolo[1,5-a]pyrazine-2-carboxamide] | 2.9
Cc1cccc2ncc(-c3cn4nc(C(=O)Nc5cccc6ncccc56)c(C(C)C)c4c(=O)[nH]3)cc12 [Example 4-29, 6-(5-Methylquinolin-3-yl)-4-oxo-3-(propan-2-yl)-N-(quinolin-5-yl)-4,5-dihydropyrazolo[1,5-a]pyrazine-2-carboxamide] | 1.6
O=C(NCC(O)C(F)(F)F)c1nn2cc(-c3ccc4c(c3)OCCO4)[nH]c(=O)c2c1C(F)(F)F (single isomer, unassigned) [6-532] | 8.9
Cc1ccc(-c2cn3nc(C(=O)N[C@H]4c5ccccc5C[C@@H]4O)cc3c(=O)[nH]2)cc1C [Example 1-80, 6-(3,4-Dimethylphenyl)-N-[(1S,2S)-2-hydroxy-2,3-dihydro-1H-inden-1-yl]-4-oxo-4,5-dihydropyrazolo[1,5-a]pyrazine-2-carboxamide] | 6.68
COC[C@H](NC(=O)c1nn2cc(-c3ccc(C(F)(F)F)c(C)c3)[nH]c(=O)c2c1C1CC1)c1ccccc1 [6-137] | 1.4
O=C(N[C@H](CCO)c1ccc(F)cc1)c1nn2cc(-c3ccc4ccccc4c3)[nH]c(=O)c2c1Cl [Example 1-120, 3-Chloro-N-[(1R)-1-(4-fluorophenyl)-3-hydroxypropyl]-6-(naphthalen-2-yl)-4-oxo-4,5-dihydropyrazolo[1,5-a]pyrazine-2-carboxamide] | 0.495
CC(NC(=O)c1cc2c(=O)[nH]c(-c3ccc4c(c3)OCCO4)cn2n1)c1ccc(F)cc1 (stereo not drawn) [Example 5-2, 6-(2,3-Dihydro-1,4-benzodioxin-6-yl)-N-[1-(4-fluorophenyl)ethyl]-4-oxo-5H-pyrazolo[1,5-a]pyrazine-2-carboxamide] | 1.65
Cc1c(C(=O)NC2(c3ccccc3)CC2)nn2c(C)c(-c3ccc4ccccc4c3)[nH]c(=O)c12 [Example 3-25, 3,7-Dimethyl-6-(naphthalen-2-yl)-4-oxo-N-(1-phenylcyclopropyl)-4,5-dihydropyrazolo[1,5-a]pyrazine-2-carboxamide] | 2.4
Cc1c(C(=O)NCc2ccccn2)nn2c(C)c(-c3ccc4ccccc4c3)[nH]c(=O)c12 [Example 3-70, 3,7-Dimethyl-6-(naphthalen-2-yl)-4-oxo-N-[(pyridin-2-yl)methyl]-4,5-dihydropyrazolo[1,5-a]pyrazine-2-carboxamide] | 5.45
CC(C)c1c(C(=O)N[C@H](C)C2CC2)nn2cc(-c3ccc(Cl)c(F)c3)[nH]c(=O)c12 [6-540] | 0.85
Cc1ccc(-c2cn3nc(C(=O)N[C@H](C)c4ccc(F)cc4)c(C4CC4)c3c(=O)[nH]2)cc1C [Example 1-84, 3-Cyclopropyl-6-(3,4-dimethylphenyl)-N-[(1R)-1-(4-fluorophenyl)ethyl]-4-oxo-4,5-dihydropyrazolo[1,5-a]pyrazine-2-carboxamide] | 1.2
Cc1ccc(-c2cn3nc(C(=O)N[C@H](C)C4CC4)c(C(F)(F)F)c3c(=O)[nH]2)cc1C [6-120] | 0.78
COc1ccc(C(C)NC(=O)c2cc3c(=O)[nH]c(-c4ccc5ccccc5c4)cn3n2)cn1 (stereo not drawn) [Example 1-104, N-[1-(6-Methompyridin-3-yl)ethyl]-6-(2-naphthyl)-4-oxo-5H-pyrazolo[1,5-a]pyrazine-2-carboxamide] | 2.26
Cc1cccc2ncc(-c3cn4nc(C(=O)Nc5cnn(C)c5)c(C(C)C)c4c(=O)[nH]3)cc12 [Example 4-24, N-(1-Methyl-1H-pyrazol-4-yl)-6-(5-methylquinolin-3-yl)-4-oxo-3-(propan-2-yl)-4,5-dihydropyrazolo[1,5-a]pyrazine-2-carboxamide] | 1.15
CC[C@@H](C)NC(=O)c1nn2cc(-c3ccc(C)c(C)c3)[nH]c(=O)c2c1C(F)(F)F [6-113] | 3.4
Cc1ccc(-c2cn3nc(C(=O)N[C@@H](c4ccccc4)C(C)(C)O)cc3c(=O)[nH]2)cc1F [6-640] | 9.4
Cc1ccc(-c2cn3nc(C(=O)NCCN(CC(F)F)C4CC4)c(C(F)(F)F)c3c(=O)[nH]2)cc1Cl [6-152] | 4.75
Cc1cc(-c2cn3nc(C(=O)N[C@@H](C)C4CC4)c(C4CCC4)c3c(=O)[nH]2)ccc1Cl [6-618] | 1
C[C@@H](NC(=O)c1nn2cc(-c3ccc4ccccc4c3)[nH]c(=O)c2c1C1CC1)c1ccc(F)cc1 [Example 1-81] | 1.59
Cc1cccc2ncc(-c3cn4nc(C(=O)NCc5cccc(CN6CCCC6)c5)c(C(C)C)c4c(=O)[nH]3)cc12 [Example 4-81, 6-(5-Methylquinolin-3-yl)-4-oxo-3-(propan-2-yl)-N-({3-[(pyrrolidin-1-yl)methyl]phenyl}methyl)-4,5-dihydropyrazolo[1,5-a]pyrazine-2-carboxamide] | 4.45
Cc1ccc(-c2cn3nc(C(=O)N[C@@H](c4ccc(F)cc4)C(C)(C)O)c(C4CCC4)c3c(=O)[nH]2)cc1F [6-573] | 1.25
Cc1c(C(=O)N[C@@H](C)c2cnccn2)nn2c(C)c(-c3ccc4ccccc4c3)[nH]c(=O)c12 [Example 3-66, 3,7-Dimethyl-6-(naphthalen-2-yl)-4-oxo-N-[(7S)-1-(pyrazin-2-yl)ethyl]-4,5-dihydropyrazolo[1,5-a]pyrazine-2-carboxamide] | 7.45
